Assay results taken from ChEMBL document CHEMBL1122139, “Importance of the aromatic ring in adrenergic amines. 7. Comparison of the stereoselectivity of norepinephrine N-methyltransferase for aromatic vs. nonaromatic substrates and inhibitors” (J Med Chem, 1982).
Several values for one entry are separate records, joined by “and”; a condition that tells them apart may be missing. Equal entries are not always repeated.

T1: Phenylethanolamine N-methyltransferase (Bos taurus, UniProt P10938)
T1 sequence (P10938 whole entry): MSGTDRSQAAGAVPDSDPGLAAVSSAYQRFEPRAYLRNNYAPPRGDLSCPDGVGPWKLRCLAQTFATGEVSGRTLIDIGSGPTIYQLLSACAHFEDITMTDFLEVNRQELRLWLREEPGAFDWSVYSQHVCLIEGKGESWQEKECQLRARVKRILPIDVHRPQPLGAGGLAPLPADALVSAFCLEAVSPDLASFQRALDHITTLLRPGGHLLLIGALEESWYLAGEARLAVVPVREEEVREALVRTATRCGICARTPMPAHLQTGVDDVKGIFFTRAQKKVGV

B1: Phenylethanolamine N-methyltransferase (Bos taurus), P10938 (protein)
chain: T1 sequence (P10938 whole entry)

Columns and labels:
[1] = Vmax value was calculated in terms of nmoles of product per mg of protein per minute
[2] = Vmax/Km x100 value of the compound
[3] = target: T1, Phenylethanolamine N-methyltransferase; assay: (§1) Inhibitory activity against Norepinephrine N-methyl-transferase of bovine adrenal glands; assay type: tissue-based, Adrenal gland
[4] = compound: NCC(O)C1CCCCCCC1; assay: as §1; assay type: tissue-based; conditions: Adrenal gland
[5] = compound: NC[C@@H](O)c1ccccc1; assay: as §1; assay type: tissue-based; conditions: Adrenal gland
[6] = compound: NC[C@@H](O)C1CCCCC1; assay: as §1; assay type: tissue-based; conditions: Adrenal gland
[7] = compound: NC[C@H](O)C1CCCCCCC1; assay: as §1; assay type: tissue-based; conditions: Adrenal gland
[8] = compound: NC[C@@H](O)C1CCCCCCC1; assay: as §1; assay type: tissue-based; conditions: Adrenal gland
[9] = compound: NC[C@H](O)C1CCCCC1; assay: as §1; assay type: tissue-based; conditions: Adrenal gland
[10] = compound: NC[C@H](O)c1ccccc1; assay: as §1; assay type: tissue-based; conditions: Adrenal gland

Molecule | Vmax [1] [nmol/min/mg] | Vmax/Km x100 [2] | Ki [3] [µM] | other results
NC[C@@H](O)C1CCCCC1 | 0.64 | 1.88 |  | 
CC(N)CC1CCCCCCC1 (configuration not stated) |  |  | 86 | 
CC(N)CC1CCCCC1 (configuration not stated) |  |  | 109 | 
C[C@H](N)c1ccccc1 |  |  | 149 | 
C[C@@H](N)C1CCCCC1 |  |  | 412 | 
C[C@@H](N)c1ccccc1 |  |  | 1680 | 
CC(N)c1ccccc1 (configuration not stated) |  |  | 460 | 
C[C@@H](N)CC1CCCCC1 |  |  | 290 | 
NC[C@@H](O)C1CCCCCCC1 | 0.27 | 0.67 |  | 
NCCC1CCCCC1 |  |  | 41 | 
NC[C@H](O)C1CCCCCCC1 | 0.38 | 0.88 |  | 
C[C@H](N)Cc1ccccc1 (stereo in doubt; 1c) [DEXTROAMPHETAMINE] |  |  | 1380 | 
NCCc1ccccc1 [PHENETHYLAMINE] |  |  | 467 | 
C[C@H](N)C1CCCCC1 |  |  | 44 | 
NC[C@H](O)C1CCCCC1 | 1.85 | 2.43 |  | 
C[C@H](N)CC1CCCCC1 |  |  | 22 | 
C[C@@H](N)CC1CCCCCCC1 |  |  | 157 | 
NC[C@@H](O)c1ccccc1 (stereo in doubt; 9a) | 1.75 | 1.62 |  | 
C[C@H](N)CC1CCCCCCC1 |  |  | 34 | 
CC(N)CC1CC=CCC1 (configuration not stated) |  |  | 110 | 
NC[C@@H](O)c1ccccc1 (stereo in doubt; 9b) | 0.92 | 0.93 |  | 
NC[C@H](O)c1ccccc1 | 4.85 | 1.69 |  | 
C[C@H](N)Cc1ccccc1 (stereo in doubt; 1b) [DEXTROAMPHETAMINE] |  |  | 422 | 
CC(N)Cc1ccccc1 (configuration not stated) [AMPHETAMINE] |  |  | 740 | 
NCC(O)C1CCCCCCC1 (configuration not stated) | 0.27 | 0.62 |  | 
NCC(O)C1CCCCC1 (configuration not stated) | 0.99 | 2.47 |  | 
B1 |  |  |  | Km [4]: 43 µM; Km [5]: 96 µM and 108 µM; Km [6]: 34 µM; Km [7]: 43 µM; Km [8]: 40 µM; Km [9]: 76 µM; Km [10]: 286 µM
